Results from US9018395B2, “Pyrazolopyridine and pyrazolopyrimidine derivatives as melanocortin-4 receptor modulators” (Université de Montréal, priority 2011, dated 2015).

Biological target: T1, wild-type human melanocortin 4 receptor (WT-hMC4R) (Homo sapiens, UniProt P32245)
T1 construct: expressed in transfected cells; cDNA from UMR cDNA resource center
Test: Cyclic AMP assay (HTRF), antagonist competition against NDP-α-MSH
Type: cell-based
Conditions: HEK293T cells expressing double-tagged WT-hMC4R; cAMP accumulation; 1 hour compound then 4 nM NDP-α-MSH 30 min
Description: Intracellular cyclic 3′-5′ adenosine monophosphate (cAMP) accumulation was measured using a competitive immunoassay based on HTRF (Homogeneous Time-Resolved Fluorescence) technology (cAMP dynamic-2, Cis-Bio).
HEK293T stable cell line expressing double-tagged WT-hMC4R construct were collected and washed in cAMP buffer (1XD-PBS pH 7.4, 0.1% glucose). 40,000 cells/well were then dispensed in 96-well plates in cAMP buffer [1XD-PBS, 1% BSA, 0.1% Glucose, 0.75 mM 3-isobutyl-1methyl-xanthine (IBMX, Sigma)] and incubated either for antagonist competition assay: 1 hour at 37° C. with various concentrations of compound [0.01 nM-10 μM] followed by 30 min incubation at 37° C. with 4 nM of NDP-α-MSH (Sigma) or for agonist assay: 1 hour at 37° C. with various concentrations of compound [0.01 nM-10 μM]. 10,000 cells were transferred in 384-well plates, lysed and incubated with cAMP labeled with the dye d2 and anti-cAMP M-Antibody labeled with Cryptate following the manufacturer's protocol.
Reading of HTRF signal was performed on Artemis TR-FRET plate reader (Cosmo Bio).
All curve fitting was conducted using non-linear regression analyses from PRISM (version 4.0c, GraphPad Inc.) and the determination of Rmax and EC50 or IC50 parameters were obtained from sigmoidal dose-response phase (variable slope) equation.
A cDNA encoding a wild-type human MC4R with a 3 tandem copies of Hemaglutinine (HA) epitote sequence from UMR cDNA resource center was modified using known techniques in the art (e.g., PCR, cloning) to fused in frame at the C-terminal a venus-Yellow Fluorescent Protein (YFP) cDNA.
The resultant cDNA was then subcloned in eukaryotic expression vector, e.g. pcDNA 3.1(+) (Invitrogen).
The double tagged WT-hMC4R was transfected in HEK293T cells with lipofectamine (Invitrogen) following the manufacturer's instructions and permanently transfected clonal cell lines were selected by resistance to the neomycin analog G418.
HEK293T stable cell line expressing wild-type human melanocortin 4 receptor (WT-hMC4R) containing an N-terminal 3xHA epitope tag and an intracellular C-terminal venus-yellow fluorescent protein (v-YFP) were maintained at 37° C. in humidified air containing 5% CO2 in Dulbecoo's modified Eagle's medium (DMEM) supplemented with 10% fetal bovine serum (FBS), 100 U/ml penicillin/streptomycin (DMEM complete/10% FBS). Cells were generally at 70%-80% confluence on the day of assay.

T1 sequence (P32245 whole entry): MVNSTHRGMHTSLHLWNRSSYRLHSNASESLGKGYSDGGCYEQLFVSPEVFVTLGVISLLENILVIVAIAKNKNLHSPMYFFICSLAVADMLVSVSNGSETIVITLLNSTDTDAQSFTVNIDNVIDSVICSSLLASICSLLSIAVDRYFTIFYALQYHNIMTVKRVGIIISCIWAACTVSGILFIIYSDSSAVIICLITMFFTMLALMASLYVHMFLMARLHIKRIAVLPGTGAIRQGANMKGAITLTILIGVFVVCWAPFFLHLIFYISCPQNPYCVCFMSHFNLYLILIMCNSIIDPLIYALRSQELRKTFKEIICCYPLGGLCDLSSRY

IC50 | SMILES
< 500 nM | CC(=O)c1cccc(-c2nn3ccc(C(=O)N(CCC(C)C)CCC(C)C)cc3c2CCCN2CCCCC2)c1 [Example 33]
< 500 nM | CC(C)CCN(CCC(C)C)C(=O)c1ccn2nc(-c3ccc(C(C)O)cc3)c(CCCN3CCCCC3)c2c1 (stereo not drawn) [Example 46, 2-(4-(1-Hydroxyethyl)phenyl)-N,N-diisopentyl-3-(3-(piperidin-1-yl)propyl)pyrazolo[1,5-a]pyridine-5-carboxamide]
< 500 nM | CC(C)CCN(CCC(C)C)C(=O)c1ccn2nc(-c3ccc(F)cc3)c(CCCN3CCCCC3)c2c1 [Example 49]
1000 to 5000 nM | COc1ccc(Cl)cc1-c1nn2ccc(C(=O)N(CCC(C)C)CCC(C)C)cc2c1CCCN1CCCC1 [Example 116]
1000 to 5000 nM | COc1ccc(Cl)cc1-c1nn2ccc(C(=O)N(CCC(C)C)CCC(C)C)cc2c1C#CCCN1CCCCC1 [Example 97]
< 500 nM | COc1cccc(-c2nn3ccc(C(=O)N(CCC(C)C)CCC(C)C)cc3c2CCCN2CCCCC2)c1 [Example 15]
500 to 1000 nM | COc1ccc(-c2nn3ccc(C(=O)N(CCC(C)C)CCC(C)C)cc3c2CCCN2CCCOCC2)cc1 [Example 162]
1000 to 5000 nM | COc1ccc(-c2nn3ccc(C(=O)N(CCC(C)C)CCC(C)C)cc3c2/C=C/CN2CCCC2)cc1 [Example 23]
< 500 nM | CC(C)CCN(CCC(C)C)C(=O)c1ccn2nc(-c3cccc(C#N)c3)c(CCCN3CCCCC3)c2c1 [Example 92]
500 to 1000 nM | COC(=O)c1ccc(-c2nn3ccc(C(=O)N(CCC(C)C)CCC(C)C)cc3c2CCCN2CCCCC2)cc1 [Example 44]
500 to 1000 nM | CC(C)CCN(CCC(C)C)C(=O)c1ccn2nc(-c3ccc(Cl)cc3)c(/C=C/CN3CCCCC3)c2c1 [Example 10, (E)-2-(4-chlorophenyl)-N,N-diisopentyl-3-(3-(piperidin-1-yl)prop-1-en-1-yl)pyrazolo[1,5-a]pyridine-5-carboxamide]
< 500 nM | CC(C)CCN(CCC(C)C)C(=O)c1ccn2nc(-c3cccc(Br)c3)c(CCCN3CCCCC3)c2c1 [Example 37]
1000 to 5000 nM | CCOC(=O)c1ccc(NC(=O)c2nn3ccc(C(=O)N(CCC(C)C)CCC(C)C)cc3c2CCCN2CCCCC2)cc1 [Example 125]
< 500 nM | CC(C)CCN(CCC(C)C)C(=O)c1ccn2nc(-c3ccc(C(N)=O)cc3)c(CCCN3CCCCC3)c2c1 [Example 95]
< 500 nM | CC(C)CCN(CCC(C)C)C(=O)c1ccn2nc(C(C)(C)C)c(CCCN3CCCCC3)c2c1 [Example 119]
< 500 nM | CC(C)CCN(CCC(C)C)C(=O)c1ccn2nc(-c3ccc(C(=N)N)cc3)c(CCCN3CCCCC3)c2c1 [Example 120]
5000 to 15000 nM | CCOc1ccc(-c2nn3ccc(C(=O)N(CCC(C)C)CCC(C)C)cc3c2CCCN2CCC(F)(F)CC2)cc1 [Example 80]

More lines, now with the values behind:

SMILES | IC50
COc1ccc(-c2nn3ccc(C(=O)N(CCC(C)C)CCC(C)C)cc3c2CCCN)cc1 [Example 154] | 5000 to 15000 nM
CNC/C=C/c1c(-c2ccc(OC)cc2)nn2ccc(C(=O)N(CCC(C)C)CCC(C)C)cc12 [Example 153] | 5000 to 15000 nM
COc1cc(-c2nn3ccc(C(=O)N(CCC(C)C)CCC(C)C)cc3c2/C=C/CN2CCCCC2)cc(OC)c1OC [Example 70] | < 500 nM
CCCCCN(CCCCC)C(=O)c1ccn2nc(-c3cc(OC)c(OC)c(OC)c3)c(/C=C/CN3CCCCC3)c2c1 [Example 71] | 1000 to 5000 nM
Cc1ccc(-c2nn3ccc(C(=O)N(CCC(C)C)CCC(C)C)cc3c2/C=C/CN2CCCCC2)cc1 [Example 64] | < 500 nM
CCCCCN(CCCCC)C(=O)c1ccn2nc(-c3ccc(F)cc3)c(/C=C/CN3CCCCC3)c2c1 [Example 53] | 1000 to 5000 nM
COc1ccc(-c2nn3ccc(C(=O)N(CCC(C)C)CCC(C)C)nc3c2/C=C/CN2CCCCC2)cc1 [Example 88, (E)-N,N-Diisopentyl-2-(4-methoxyphenyl)-3-(3-(piperidin-1-yl)prop-1-en-1-yl)pyrazolo[1,5-a]pyrimidine-5-carboxamide] | 1000 to 5000 nM
CC(=O)c1ccc(-c2nn3ccc(C(=O)N(CCC(C)C)CCC(C)C)cc3c2/C=C/CN2CCOCC2)cc1 [Example 115] | 1000 to 5000 nM
CC(C)CCN(CCC(C)C)C(=O)c1ccn2nc(-c3ccc(-c4noc(Cc5ccc(F)cc5)n4)cc3)c(CCCN3CCCCC3)c2c1 [Example 140] | 5000 to 15000 nM
CCCCN(CCCC)C(=O)c1ccn2nc(-c3ccc(C)cc3)c(/C=C/CN3CCCCC3)c2c1 [Example 63] | 500 to 1000 nM
COC(=O)c1cccc(-c2nn3ccc(C(=O)N(CCC(C)C)CCC(C)C)cc3c2/C=C/CN2CCCCC2)c1 [Example 30] | < 500 nM
CC(C)CCN(CCC(C)C)C(=O)c1ccn2nc(-c3ccc(C(N)=O)cc3)c(/C=C/CN3CCCCC3)c2c1 [Example 91] | 500 to 1000 nM
CCCCN(CCCC)C(=O)c1ccn2nc(-c3ccc(C(C)(C)C)cc3)c(CCCN3CCCC3)c2c1 [Example 9] | 5000 to 15000 nM
CCCCCN(CCCCC)C(=O)c1ccn2nc(-c3ccc(OC)cc3)c(/C=C/CN3CCCCC3)c2c1 [Example 19] | 1000 to 5000 nM
CC(C)CCN(CCC(C)C)Cc1ccn2nc(-c3ccccc3)c(CCCN3CCCCC3)c2c1 [Example 144] | 5000 to 15000 nM
CCCCCN(CCCCC)C(=O)c1ccn2nc(-c3ccccc3)c(CCCN3CCCCC3)c2c1 [Example 56] | 500 to 1000 nM

SMILES | IC50
CC(C)CCN(CCC(C)C)C(=O)c1ccn2nc(-c3cccc(C(=O)O)c3)c(/C=C/CN3CCCCC3)c2c1 [Example 73] | 1000 to 5000 nM
CC(=O)c1cccc(-c2nn3ccc(C(=O)N(CCC(C)C)CCC(C)C)cc3c2/C=C/CN2CCCCC2)c1 [Example 29] | 500 to 1000 nM
CCOc1ccc(-c2nn3ccc(C(=O)N(CCC(C)C)CCC(C)C)cc3c2/C=C/CN2CCCCC2)cc1 [Example 20] | 1000 to 5000 nM
CCOc1ccc(-c2nn3ccc(C(=O)N(CCC(C)C)CCC(C)C)cc3c2/C=C/CN2CCOCC2)cc1 [Example 147] | 5000 to 15000 nM
CCCCN(CCC)C(=O)c1ccn2nc(-c3ccc(OC)cc3)c(/C=C/CN3CCCCC3)c2c1 [Example 25] | 1000 to 5000 nM
CCCCN(CCCC)C(=O)c1ccn2nc(-c3cc(OC)c(OC)c(OC)c3)c(CCCN3CCCCC3)c2c1 [Example 66] | 500 to 1000 nM
COc1ccc(-c2nn3ccc(N(CCC(C)C)CCC(C)C)cc3c2CCCN2CCCCC2)cc1 [Example 131] | 5000 to 15000 nM
COc1ccc(-c2nn3ccc(C(=O)N(CCC(C)C)CCC(C)C)cc3c2/C=C/CNCc2ccccc2)cc1 [Example 150] | 5000 to 15000 nM
CCOc1ccc(-c2nn3ccc(C(=O)N(CCC(C)C)CCC(C)C)cc3c2/C=C/CN2CCC(C(F)(F)F)CC2)cc1 [Example 81] | 5000 to 15000 nM
CCCCN(CCCC)C(=O)c1ccn2nc(-c3cc(OC)cc(OC)c3)c(CCCN3CCCCC3)c2c1 [Example 87] | 1000 to 5000 nM
COc1ccc(-c2nn3ccc(C(=O)N(CCC(C)C)CCC(C)C)nc3c2/C=C/CN2CCCC2)cc1 [Example 99] | 1000 to 5000 nM
CCCCN(CCCC)C(=O)c1ccn2nc(-c3ccc(C)cc3)c(CCCN3CCCCC3)c2c1 [Example 60] | 500 to 1000 nM
CCCCN(CCCC)C(=O)c1ccn2nc(-c3ccc(OC)cc3)c(CCCN3CCCCC3)c2c1 [Example 1, N,N-Dibutyl-2-(4-methoxyphenyl)-3-(3-(piperidin-1-yl)propyl)pyrazolo[1,5-a]pyridine-5-carboxamide] | 1000 to 5000 nM
CCCCCN(CCCCC)C(=O)c1ccn2nc(-c3ccccc3)c(/C=C/CN3CCCCC3)c2c1 [Example 59] | 1000 to 5000 nM
COc1ccc(-c2nn3ccc(C(=O)N(CCC(C)C)CCC(C)C)cc3c2CCCNCc2ccccc2)cc1 [Example 155] | 1000 to 5000 nM
